Results as given in patent US20220323427A1, “SOMATOSTATIN RECEPTOR TYPE 5 AGONIST FOR THE TREATMENT OF HYPERINSULINISM” (Crinetics Pharmaceuticals, Inc., priority 2021, published 2022).

Key:
[1] = system: human pancreatic islets; test: Glucagon secretion in perifused human islets; type: cell-based; settings: islets from a healthy donor; G3+Arg
Method: For glucagon secretion, glucose (Boston BioProducts #BM-675) solutions, G3, G16.7 and G3 plus 20 mM arginine (Sigma #A8094; G3+Arg) were prepared in PB [24 mM NaHCO3 (Fisher Scientific #S233-500), 120 mM NaCl (Spectrum Chemical #S0155), 4.8 mM KCl (Fisher Scientific #P217-500), 2.5 mM CaCl2 (Fisher Scientific #C614-500), 1.2 mM MgCl2 (Sigma #M8266), 10 mM HEPES (Gibco #15630-080) and 0.1% BSA (EMD Millipore #12-675-100GM)]. Various concentrations of Compound 1 and diazoxide (Sigma #D9035) were prepared in G16.7 or in G3+Arg. On the day of the assay, ten perifusion chambers (Biorep #Peri-chamber) were loaded with a bead suspension (Biorep #Peri-beads-20) followed by 300 IEQ and another layer of bead suspension. Chambers were filled with PB, placed in the perifusion equipment and equilibrated with G3 for 74 min (flow rate=230 μL/min) followed by the perifusion steps for glucagon secretion shown in Table 3. […] Glucagon concentration was quantified using the commercially-available Mercodia Glucagon ELISA (Mercodia #10-1271-01) kit. undiluted perfusate samples were added to the supplied pre-coated assay plates. […] The optical density of each well was determined at 450 nm in a Tecan M1000Pro (Tecan, Switzerland) multiplate reader. Glucagon concentrations were calculated by regression to the standard curve using GraphPad Prism (GraphPad, San Diego, Calif.).

[2] = cited from earlier work
[3] = fasting conditions; cited from earlier work
[4] = system: glyburide-induced hyperinsulinemic hypoglycemia; test: Glyburide-induced hyperinsulinemic hypoglycemia model in rats; type: in vivo, Sprague Dawley rats; settings: 30 mg/kg oral, adult male rats; mean baseline 168 mg/dL
Method: Sulfonylurea drugs, such as glyburide, inhibit KATP channels and can be used in rat preclinical models to mimic the disease state of congenital HI patients with KATP channel mutations.
This model of glyburide-induced hyperinsulinemic hypoglycemia was used to assess the pharmacodynamic effects of Compound 1 after a single administration in male and female adult rats and male neonatal rats.
Glyburide was administered to raise insulin levels and induce hypoglycemia in adult male Sprague Dawley rats.
Two hours following glyburide administration, Compound 1 was given by oral gavage and blood glucose was monitored over 5 hours.

SMILES | Inhibition of arginine-stimulated glucagon secretion [1] | Patients treated and considered responsive who continue to have hypoglycemia ([2]; 2020 Congenital HI International Global Registry report) | Patients who experienced pulmonary hypertension ([2]; one study) | Side effect: fluid retention ([2]; patients) | Side effect: gastrointestinal side effects including feeding aversion ([2]; patients) | Side effect: severe hypertrichosis ([2]; patients) | half-life [3] | Blood glucose level after glyburide [4]
CC1=NS(=O)(=O)c2cc(Cl)ccc2N1 [diazoxide] | up to 57% | 30% | 4.8% | approximately 30% | approximately 12% | approximately 52% | – | –
COc1ccc(Cl)cc1C(=O)NCCc1ccc(S(=O)(=O)NC(=O)NC2CCCCC2)cc1 [glyburide, reference compound] | – | – | – | – | – | – | approximately 10 hours | 70 mg/dL
